Measured values reported in the supplement of paper PMC10307832.

What was measured:
Assay in all cases: relative viability (nuclei count vs DMSO), 5 days (fraction); higher = more cells survive
A-427 = test system: A-427
Method in brief: (§1)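 Cells from lung cancer lines were seeded into 1536-well plates and, one day later, dosed by pin tool. Treatments were either a single drug or a fixed dose of an anchor drug with five library-drug doses (not always all listed) in √10 steps. After 5 days, nuclei were stained in a one-step fixation (final 0.05% Triton X-100, 1% formaldehyde, 1 ug/ml Hoechst) and counted on 4× images, and relative viability is the treated-to-vehicle nuclei ratio, as the median of duplicate plates.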

ABC-1 = test system: ABC-1
Method in brief: as §1

EMC-BAC-2 = test system: EMC-BAC-2
Method in brief: as §1

HARA = test system: HARA
Method in brief: as §1

HOP-62 = test system: HOP-62
Method in brief: as §1

LK-2 = test system: LK-2
Method in brief: as §1

LXF-289 = test system: LXF-289
Method in brief: as §1

NCI-H1792 = test system: NCI-H1792
Method in brief: as §1

NCI-H1944 = test system: NCI-H1944
Method in brief: as §1

NCI-H1993 = test system: NCI-H1993
Method in brief: as §1

NCI-H2009 = test system: NCI-H2009
Method in brief: as §1

NCI-H2170 = test system: NCI-H2170
Method in brief: as §1

NCI-H2228 = test system: NCI-H2228
Method in brief: as §1

NCI-H3122 = test system: NCI-H3122
Method in brief: as §1

NCI-H322M = test system: NCI-H322M
Method in brief: as §1

NCI-H522 = test system: NCI-H522
Method in brief: as §1

NCI-H596 = test system: NCI-H596
Method in brief: as §1

NCI-H727 = test system: NCI-H727
Method in brief: as §1

PC-3 [JPC-3] = test system: PC-3 [JPC-3]
Method in brief: as §1

SK-MES-1 = test system: SK-MES-1
Method in brief: as §1

SW 1573 = test system: SW 1573
Method in brief: as §1

SW 900 = test system: SW 900
Method in brief: as §1

## CCN(CC)CCCCNc1ncc2cc(-c3cc(OC)cc(OC)c3)c(NC(=O)NC(C)(C)C)nc2n1 + CCNC(=O)c1noc(-c2cc(C(C)C)c(O)cc2O)c1-c1ccc(CN2CCOCC2)cc1 [Luminespib] (partner 0.01 µM)
A-427; first compound 0.01 µM
  relative viability: 1.01
A-427; first compound 0.03162 µM
  relative viability: 1.01
A-427; first compound 0.1 µM
  relative viability: 1.09
A-427; first compound 0.3162 µM
  relative viability: 1.03
A-427; first compound 1 µM
  relative viability: 0.872
ABC-1; first compound 0.01 µM
  relative viability: 0.731
ABC-1; first compound 0.03162 µM
  relative viability: 0.405
ABC-1; first compound 0.1 µM
  relative viability: 0.832
ABC-1; first compound 0.3162 µM
  relative viability: 0.416
ABC-1; first compound 1 µM
  relative viability: 0.693
EMC-BAC-2; first compound 0.01 µM
  relative viability: 1.27
EMC-BAC-2; first compound 0.03162 µM
  relative viability: 1.16
EMC-BAC-2; first compound 0.1 µM
  relative viability: 1.08
EMC-BAC-2; first compound 0.3162 µM
  relative viability: 1.35
EMC-BAC-2; first compound 1 µM
  relative viability: 1.05
HARA; first compound 0.01 µM
  relative viability: 1.11
HARA; first compound 0.03162 µM
  relative viability: 0.896
HARA; first compound 0.1 µM
  relative viability: 0.948
HARA; first compound 0.3162 µM
  relative viability: 0.904
HARA; first compound 1 µM
  relative viability: 0.439
HOP-62; first compound 0.01 µM
  relative viability: 1.12
HOP-62; first compound 0.03162 µM
  relative viability: 0.986
HOP-62; first compound 0.1 µM
  relative viability: 1.02
HOP-62; first compound 0.3162 µM
  relative viability: 0.961
HOP-62; first compound 1 µM
  relative viability: 0.888
LK-2; first compound 0.01 µM
  relative viability: 0.153
LK-2; first compound 0.03162 µM
  relative viability: 0.207
LK-2; first compound 0.1 µM
  relative viability: 0.202
LK-2; first compound 0.3162 µM
  relative viability: 0.183
LK-2; first compound 1 µM
  relative viability: 0.184
LXF-289; first compound 0.01 µM
  relative viability: 0.727
LXF-289; first compound 0.03162 µM
  relative viability: 0.668
LXF-289; first compound 0.1 µM
  relative viability: 0.699
LXF-289; first compound 0.3162 µM
  relative viability: 0.801
LXF-289; first compound 1 µM
  relative viability: 0.577
NCI-H1792; first compound 0.01 µM
  relative viability: 0.38
NCI-H1792; first compound 0.03162 µM
  relative viability: 0.388
NCI-H1792; first compound 0.1 µM
  relative viability: 0.536
NCI-H1792; first compound 0.3162 µM
  relative viability: 0.37
NCI-H1792; first compound 1 µM
  relative viability: 0.282
NCI-H1944; first compound 0.01 µM
  relative viability: 0.705
NCI-H1944; first compound 0.03162 µM
  relative viability: 0.747
NCI-H1944; first compound 0.1 µM
  relative viability: 0.762
NCI-H1944; first compound 0.3162 µM
  relative viability: 0.822
NCI-H1944; first compound 1 µM
  relative viability: 0.603
NCI-H1993; first compound 0.01 µM
  relative viability: 0.401
NCI-H1993; first compound 0.03162 µM
  relative viability: 0.715
NCI-H1993; first compound 0.1 µM
  relative viability: 0.771
NCI-H1993; first compound 0.3162 µM
  relative viability: 0.97
NCI-H1993; first compound 1 µM
  relative viability: 0.666
NCI-H2009; first compound 0.01 µM
  relative viability: 1.15
NCI-H2009; first compound 0.03162 µM
  relative viability: 0.983
NCI-H2009; first compound 0.1 µM
  relative viability: 1.13
NCI-H2009; first compound 0.3162 µM
  relative viability: 1.1
NCI-H2009; first compound 1 µM
  relative viability: 0.931
NCI-H2170; first compound 0.01 µM
  relative viability: 0.446
NCI-H2170; first compound 0.03162 µM
  relative viability: 0.857
NCI-H2170; first compound 0.1 µM
  relative viability: 0.668
NCI-H2170; first compound 0.3162 µM
  relative viability: 0.801
NCI-H2170; first compound 1 µM
  relative viability: 0.937
NCI-H2228; first compound 0.01 µM
  relative viability: 0.131
NCI-H2228; first compound 0.03162 µM
  relative viability: 0.109
NCI-H2228; first compound 0.1 µM
  relative viability: 0.173
NCI-H2228; first compound 0.3162 µM
  relative viability: 0.247
NCI-H2228; first compound 1 µM
  relative viability: 0.142
NCI-H3122; first compound 0.01 µM
  relative viability: 0.0914
NCI-H3122; first compound 0.03162 µM
  relative viability: 0.082
NCI-H3122; first compound 0.1 µM
  relative viability: 0.112
NCI-H3122; first compound 0.3162 µM
  relative viability: 0.0822
NCI-H3122; first compound 1 µM
  relative viability: 0.127
NCI-H322M; first compound 0.01 µM
  relative viability: 0.884
NCI-H322M; first compound 0.03162 µM
  relative viability: 0.854
NCI-H322M; first compound 0.1 µM
  relative viability: 0.859
NCI-H322M; first compound 0.3162 µM
  relative viability: 0.988
NCI-H322M; first compound 1 µM
  relative viability: 0.799
NCI-H522; first compound 0.01 µM
  relative viability: 1.14
NCI-H522; first compound 0.03162 µM
  relative viability: 1.08
NCI-H522; first compound 0.1 µM
  relative viability: 1.15
NCI-H522; first compound 0.3162 µM
  relative viability: 1.13
NCI-H522; first compound 1 µM
  relative viability: 1.11
NCI-H596; first compound 0.01 µM
  relative viability: 1.03
NCI-H596; first compound 0.03162 µM
  relative viability: 1.05
NCI-H596; first compound 0.1 µM
  relative viability: 1.02
NCI-H596; first compound 0.3162 µM
  relative viability: 1.01
NCI-H596; first compound 1 µM
  relative viability: 0.621
NCI-H727; first compound 0.01 µM
  relative viability: 0.251
NCI-H727; first compound 0.03162 µM
  relative viability: 0.323
NCI-H727; first compound 0.1 µM
  relative viability: 0.28
NCI-H727; first compound 0.3162 µM
  relative viability: 0.278
NCI-H727; first compound 1 µM
  relative viability: 0.327
PC-3 [JPC-3]; first compound 0.01 µM
  relative viability: 0.814
PC-3 [JPC-3]; first compound 0.03162 µM
  relative viability: 0.738
PC-3 [JPC-3]; first compound 0.1 µM
  relative viability: 0.725
PC-3 [JPC-3]; first compound 0.3162 µM
  relative viability: 0.746
PC-3 [JPC-3]; first compound 1 µM
  relative viability: 0.662
SK-MES-1; first compound 0.01 µM
  relative viability: 0.97
SK-MES-1; first compound 0.03162 µM
  relative viability: 0.762
SK-MES-1; first compound 0.1 µM
  relative viability: 0.832
SK-MES-1; first compound 0.3162 µM
  relative viability: 0.798
SK-MES-1; first compound 1 µM
  relative viability: 0.576
SW 1573; first compound 0.01 µM
  relative viability: 0.238
SW 1573; first compound 0.03162 µM
  relative viability: 0.297
SW 1573; first compound 0.1 µM
  relative viability: 0.239
SW 1573; first compound 0.3162 µM
  relative viability: 0.177
SW 1573; first compound 1 µM
  relative viability: 0.172
SW 900; first compound 0.01 µM
  relative viability: 0.172
SW 900; first compound 0.03162 µM
  relative viability: 0.182
SW 900; first compound 0.3162 µM
  relative viability: 0.15
SW 900; first compound 1 µM
  relative viability: 0.188
